# Measured values reported in patent publication US6531584B1, “2'modified oligonucleotides” (ISIS Pharmaceuticals, Inc., priority 1990, dated 2003).
# “And” between values parts separate entries of the source, which are not always exact repeats. Equal values may be shown once. Strand notation (5' to 3'): a small letter for the sugar, then the base; units joined by * are phosphorothioate-linked, units joined directly phosphodiester-linked; [ ] holds rarer units or linkages, { } end groups; capitals alone tell only the bases. d = 2'-deoxy (DNA); m = 2'-O-methyl; f = 2'-fluoro
# What was measured:
# PKC-α mRNA = experiment: Northern blot analysis of PKC-α mRNA levels; format: cell-based, human; conditions: FIGS. 3 to 5
# Method: Oligonucleotides having SEQ ID NO:4 were synthesized as uniformly phosphorothioate chimeric oligonucleotides having a centered deoxy gap of varying lengths flanked by 2′-O-methylated regions. These oligonucleotides (500 nM concentration) were tested for effects on PKC-α mRNA levels by Northern blot analysis.
# ras mRNA = experiment: Northern blot analysis of ras expression in T24 cells; format: cell-based, human; set-up: inhibition of ras expression / decrease of ras mRNA: concentration or dose not given beside the values; conditions: T24 cells, Northern blot
# Method: The human urinary bladder cancer cell line T24 was obtained from the American Type Culture Collection (Rockville Md.). Cells were grown in McCoy's 5A medium with L-glutamine (GIBCO-BRL, Gaithersburg, Md.), supplemented with 10% heat-inactivated fetal calf serum and 50 U/ml each of penicillin and streptomycin. Cells were seeded on 100 mm plates. When they reached 70% confluency, they were treated with oligonucleotide. Plates were washed with 10 ml prewarmed PBS and 5 ml of OptiMEM (GIBCO) reduced-serum medium containing 2.5 μl DOTMA. Oligonucleotide was then added to the desired concentration. After 4 hours of treatment, the medium was replaced with McCoy's medium. Cells were harvested 48 hours after oligonucleotide treatment and RNA was isolated using a standard CsCl purification method. [Kingston in Current Protocols in Molecular Biology, F. M. Ausubel, R. Brent, R. E. Kingston, D. D. Moore, J. A. Smith, J. G. Seidman and K. Strahl, Eds., John Wiley and Sons, New York.] The human epithelioid carcinoma cell line HeLa 229 was obtained from the American Type Culture Collection (Bethesda, Md.). HeLa cells were maintained as monolayers on 6-well plates in Dulbecco's Modified Eagle's medium (DMEM) supplemented with 10% fetal bovine serum and 100 U/ml penicillin. Treatment with oligonucleotide and isolation of RNA were essentially as described above for T24 cells.
# Northern hybridization: 10 μg of each RNA was electrophoresed on a 1.2% agarose/formaldehyde gel and transferred overnight to GeneBind 45 nylon membrane (Pharmacia LKB, Piscataway, N.J.) using standard methods. [Kingston in Current Protocols in Molecular Biology, F. M. Ausubel, R. Brent, R. E. Kingston, D. D. Moore, J. A. Smith, J. G. Seidman and K. Strahl, Eds., John Wiley and Sons, New York.] RNA was UV-crosslinked to the membrane. Double-stranded ^32P-labeled probes were synthesized using the Prime a Gene labeling kit (Promega, Madison, Wis.). The ras probe was a SalI-NheI fragment of a cDNA clone of the activated (mutant) H-ras mRNA having a GGC-to-GTC mutation at codon-12. The control probe was G3PDH. Blots were prehybridized for 15 minutes at 68° C. with the QuickHyb hybridization solution (Stratagene, La Jolla, Calif.). The heat-denatured radioactive probe (2.5×10^6 counts/2 ml hybridization solution) mixed with 100 μl of 10 mg/ml salmon sperm DNA was added and the membrane was hybridized for 1 hour at 68° C. The blots were washed twice for 15 minutes at room temperature in 2×SSC/0.1% SDS and once for 30 minutes at 60° C. with 0.1×SSC/0.1%SDS. Blots were autoradiographed and the intensity of signal was quantitated using an ImageQuant PhosphorImager (Molecular Dynamics, Sunnyvale, Calif.). Northern blots were first hybridized with the ras probe, then stripped by boiling for 15 minutes in 0.1×SSC/0.1%SDS and rehybridized with the control G3PDH probe to check for correct sample loading.
# [1] = tested on: complementary RNA strand (the sense strand); experiment: Thermal melting analysis of 2′-deoxy-2′-fluoro modified antisense oligonucleotides with complementary RNA; format: binding; conditions: for Tm (° C.)/ subst.: change in Tm per 2′-fluoro substitution; for Tm (° C.): second Tm column: change in Tm versus unmodified oligonucleotide
# c-raf mRNA = experiment: Northern blot analysis of c-raf mRNA expression in T24 cells; format: cell-based, human
# Excerpt: Chimeric oligonucleotides having SEQ ID NO:7 were designed using the Genbank c-raf sequence HUMRAFR (Genbank listing x03484), synthesized and tested for inhibition of c-raf mRNA expression in T24 bladder carcinoma cells using a Northern blot assay. These chimeric oligonucleotides have central “gap” regions of 6, 8 or 10 deoxynucleotides flanked by two regions of 2′-O-methyl modified nucleotides, and are shown in Table 10. Backbones were uniformly phosphorothioate. […] These oligonucleotides are preferred.
# The human urinary bladder cancer cell line T24 was obtained from the American Type Culture Collection (Rockville, Md.). Cells were grown in McCoy's 5A medium with L-glutamine (GIBCO-BRL, Gaithersburg, Md.), supplemented with 10% heat-inactivated fetal calf serum and 50 U/ml each of penicillin and streptomycin. Cells were seeded on 100 mm plates. When they reached 70% confluency, they were treated with oligonucleotide. Plates were washed with 10 ml prewarmed PBS and 5 ml of OptiMEM reduced-serum medium containing 2.5 μl DOTMA. Oligonucleotide with lipofectin was then added to the desired concentration. After 4 hours of treatment, the medium was replaced with McCoy's medium. Cells were harvested 24 to 72 hours after oligonucleotide treatment and RNA was isolated using a standard CsCl purification method. [Kingston in Current Protocols in Molecular Biology, F. M. Ausubel, R. Brent, R. E. Kingston, D. D. Moore, J. A. Smith, J. G. Seidman and K. Strahl, Eds., John Wiley and Sons, New York.] Total RNA was isolated by centrifugation of cell lysates over a CsCl cushion. RNA samples were electrophoresed through 1.2% agarose-formaldehyde gels and transferred to hybridization. membranes by capillary diffusion over a 12-14 hour period. The RNA was cross-linked to the membrane by exposure to UV light in a Stratalinker (Stratagene, La Jolla, Calif.) and hybridized to random-primed ^32P-labeled c-raf cDNA probe (obtained from ATCC) or G3PDH probe as a control. RNA was quantitated using a Phosphorimager (Molecular Dynamics, Sunnyvale, Calif.).
# [2] = tested on: mutant (activated) H-ras RNA; format: cell-based, human
# [3] = first G°37 column: free energy of duplex with complementary RNA
# [4] = second G°37 column: change versus unmodified oligonucleotide
substance,measurement,setting,value
"AoAoAoAoCoGsTsCsAsGsCsCsAsTsGoGoToCoCoC (AAAACGTCAGCCATGGTCCC; listed as DNA, chemistry not fully specified) [Oligonucleotide 7273]",reduction of PKC-α mRNA levels,PKC-α mRNA,more active than their 2′-O-methyl counterparts
"AsAoAoAoCoGsTsCsAsGsCsCsAsTsGoGoToCoCsC (AAAACGTCAGCCATGGTCCC; linkages s1 o4 s9 o4 s1 (s phosphorothioate, o phosphodiester), sugars by position and methylation of C not given here; further chemistry not fully specified) [Oligonucleotide 7008]",reduction of PKC-α mRNA levels,PKC-α mRNA,show reduction of PKC-α mRNA
"AsAoAoAoCoGsTsCsAsGsCsCsAsTsGoGoToCoCsC (AAAACGTCAGCCATGGTCCC; listed as DNA, chemistry not fully specified) [Oligonucleotide 7294]",reduction of PKC-α mRNA levels,PKC-α mRNA,more active than their 2′-O-methyl counterparts
"AsAsAsAsCsGsTsCsAsGsCsCsAsTsGsGsTsCsCsC (AAAACGTCAGCCATGGTCCC; 2'-O-methyl/deoxy P=S chimera, chemistry not fully specified) [Oligonucleotide 5352]",reduction of PKC-α mRNA levels,PKC-α mRNA,most active
AsAsAsAsCsGsTsCsAsGsCsCsAsTsGsGsTsCsCsC (dA*dA*dA*dA*dC*dG*dT*dC*dA*dG*dC*dC*dA*dT*dG*dG*dT*dC*dC*dC) [Oligonucleotide 3522],reduction of PKC-α mRNA levels,PKC-α mRNA,show reduction of PKC-α mRNA
CTTATATTCCGTCATCGCTC [Oligonucleotide 2502],inhibition of ras expression / decrease of ras mRNA,ras mRNA; listed as 2502,26%
CTTATATTCCGTCATCGCTC [Oligonucleotide 4998],inhibition of ras expression / decrease of ras mRNA,ras mRNA; listed as 4998,84%
CGA CUAUGCAAG UAC (CGACUAUGCAAGUAC; chemistry not fully specified),Tm (° C.)/ subst.,[1],+1.7 °C
same,G°37,[1]; [3],-16.18 ± 0.08 kcal/mol
same,G°37,[1]; [4],-6.07 ± 0.09 kcal/mol
same,Tm (° C.),[1],+13.8 °C
CGACUAUGCAAG UAC (CGACUAUGCAAGUAC; chemistry not fully specified),Tm (° C.)/ subst.,[1],+1.8 °C
same,G°37,[1]; [3],-19.85 ± 0.05 kcal/mol
same,G°37,[1]; [4],-9.74 ± 0.06 kcal/mol
same,Tm (° C.),[1],+20.1 °C
"CTCGCCCGCTCCTCCTCCCC (2'-O-methyl P=S chimera, chemistry not fully specified) [ISIS 7849]",inhibition of c-raf mRNA expression,c-raf mRNA,> 70%
C^FC^FA^F C^FA^FCd CdGdAd CdGdGd C^FG^FC^F C^FC^F [Oligonucleotide 4690],inhibition of ras expression / decrease of ras mRNA,ras mRNA,82%
C^MC^MA^M C^MA^MC^M C^MG^MAd C^MG^MG^M C^MG^MC^M C^MC^M [Oligonucleotide 3975],inhibition of ras-luciferase activity,[2],neither of the oligonucleotides having either the one or the three 2′-deoxy-erythro-pentofuranosyl nucleotide subsequences showed significant activity
C^MC^MA^M C^MA^MC^M C^MGdAd CdG^MG^M C^MG^MC^M C^MC^M [Oligonucleotide 3979],inhibition of ras-luciferase activity,[2],neither of the oligonucleotides having either the one or the three 2′-deoxy-erythro-pentofuranosyl nucleotide subsequences showed significant activity
C^MC^MA^M C^MA^MC^M CdGdAd CdGdG^M C^MG^MC^M C^MC^M [Oligonucleotide 3980],inhibition of ras-luciferase activity,[2],next greatest inhibition
same,inhibition of ras expression / decrease of ras mRNA,ras mRNA,61%
"C^MC^MA^M C^MA^MCd CdGdAd CdGdGd C^MG^MC^M C^MC^M (antisense CCACACCGACGGCGCCC; sugars from the 5' end m5 d7 m5, backbone and methylation of C not given here) [Oligonucleotide 3985, 2′-O-methyl P═S chimera, 7-deoxy gap]",inhibition of ras-luciferase activity,[2],greatest inhibition
same,inhibition of ras expression / decrease of ras mRNA,ras mRNA,95% and 81%
C^MC^MA^M C^MAdCd CdGdAd CdGdGd CdG^MC^M C^MC^M [Oligonucleotide 3984],inhibition of ras expression / decrease of ras mRNA,ras mRNA,81%
CsCsAsCoAoCoCoGoAoCoGoGoCoGsCsCsC [Oligonucleotide 4241],effect on ras expression,[2],completely inactive
CsCsAsCsAsCsCsGsAoCsGsGsCsGsCsCsC [Oligonucleotide 4248],effect on ras expression,[2],just as active as a full P═S molecule
"Oligonucleotide 4689: SEQ ID NO:1, 2′-fluoro-modified nucleotides flanking a 5-deoxy gap (CCACACCGACGGCGCCC; sugars from the 5' end f6 d5 f6, all phosphorothioate, methylation of C not given here)",inhibition of ras expression / decrease of ras mRNA,ras mRNA,63%
TCCGTCATCGCTCCTCAGGG [Oligonucleotide 5122],inhibition of ras expression / decrease of ras mRNA,ras mRNA; listed as 5122,15%
"TCCCGCCTGTGACATGCATT (2'-O-methyl P=S chimera, 6-deoxy gap, chemistry not fully specified) [ISIS 6720]",inhibition of c-raf mRNA expression,c-raf mRNA,greater than 70%
"TsCsTs CsGsCs TsGsGs TsGsAs GsTsTs TsC (TCTCGCTGGTGAGTTTC; all phosphorothioate, sugars by position and methylation of C not given here) [Oligonucleotide 7082]",reduction of PKC-α mRNA levels,PKC-α mRNA,most active in reducing PKC-α mRNA levels
"TsTsCs TsCsGs CsTsGs GsTsGs AsGsTs TsTsC (TTCTCGCTGGTGAGTTTC; all phosphorothioate, sugars by position and methylation of C not given here) [Oligonucleotide 6632]",reduction of PKC-α mRNA levels,PKC-α mRNA,most active in reducing PKC-α mRNA levels
"oligonucleotide with the 2′-O-propyl diester flanking regions: SEQ ID NO:1, phosphorothioate in the 7-base deoxy gap only, phosphodiester 2′-O-propyl flanking regions (DNA CCACACCGACGGCGCCC; sugars by position and backbone not given here; 2'-O-propyl phosphodiester flanks, 7-base phosphorothioate deoxy gap)",effect on ras expression,[2],able to inhibit ras expression
